From patent US9409866B2, “Pyridine-2-amides useful as CB2 agonists” (Hoffmann-La Roche Inc., priority 2012, dated 2016)
Where two headings read alike, the source gives them in different places.

What was measured:
human CB1 receptors = human CB1 receptors (Homo sapiens (Human), UniProt P21554); experiment: functional cAMP assay, CHO cells expressing human CB1; type: cell-based; details: functional cAMP assay, CHO cells expressing human CB1
Method in brief: (§1)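 Agonist EC50 values came from cAMP levels in CHO cells carrying human CB1 or CB2, after 30 min of compound treatment at 30 °C in the presence of 1 mM IBMX. Detection used a time-resolved FRET cAMP kit read against a cAMP standard curve.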

human CB2 receptors = human CB2 receptors (Homo sapiens (Human), UniProt P34972); experiment: functional cAMP assay, CHO cells expressing human CB2; type: cell-based
human CB2 receptors, sequence (P34972 whole entry): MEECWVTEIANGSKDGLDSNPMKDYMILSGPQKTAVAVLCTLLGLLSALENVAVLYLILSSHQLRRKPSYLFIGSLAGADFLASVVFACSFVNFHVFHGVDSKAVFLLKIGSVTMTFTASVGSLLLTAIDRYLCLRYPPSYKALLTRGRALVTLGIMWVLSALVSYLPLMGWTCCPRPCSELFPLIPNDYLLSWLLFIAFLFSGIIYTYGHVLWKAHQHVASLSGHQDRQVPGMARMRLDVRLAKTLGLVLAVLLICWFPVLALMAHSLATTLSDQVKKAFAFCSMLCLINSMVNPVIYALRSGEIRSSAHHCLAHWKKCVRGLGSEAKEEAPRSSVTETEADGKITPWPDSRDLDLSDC
Method in brief: as §1

human CB1 receptors, sequence (P21554 whole entry): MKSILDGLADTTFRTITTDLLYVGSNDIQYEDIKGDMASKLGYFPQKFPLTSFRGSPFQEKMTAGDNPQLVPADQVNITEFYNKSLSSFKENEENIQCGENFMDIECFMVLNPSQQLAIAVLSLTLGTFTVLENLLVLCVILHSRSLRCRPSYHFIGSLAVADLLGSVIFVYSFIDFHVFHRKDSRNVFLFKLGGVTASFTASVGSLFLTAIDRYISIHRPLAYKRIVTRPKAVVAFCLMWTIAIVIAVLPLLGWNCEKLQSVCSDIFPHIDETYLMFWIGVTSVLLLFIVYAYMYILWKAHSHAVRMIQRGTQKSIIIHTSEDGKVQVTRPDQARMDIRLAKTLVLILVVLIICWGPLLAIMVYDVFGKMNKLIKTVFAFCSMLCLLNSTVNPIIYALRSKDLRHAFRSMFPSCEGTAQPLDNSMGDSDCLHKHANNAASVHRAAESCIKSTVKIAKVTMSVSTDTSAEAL

| SMILES | EC50 (human CB1 receptors; read-out: Human CB1 EC50) | EC50 (human CB2 receptors; read-out: Human CB2 EC50) | EC50 (human CB1 receptors; Human CB1 EC50 (uM)) | EC50 (human CB2 receptors; Human CB2 EC50 (uM)) |
| --- | --- | --- | --- | --- |
| CC(C)(O)CNC(=O)c1cc(OCC2CC2)c(C2CC2)cn1 [Example 59, 5-Cyclopropyl-4-cyclopropylmethoxy-pyridine-2-carboxylic acid (2-hydroxy-2-methyl-propyl)-amide] | > 10 µM | 0.0816 µM | – | – |
| CC(C)(O)CNC(=O)c1cc(OCC(F)(F)F)c(C2CC2)cn1 [Example 60, 5-Cyclopropyl-4-(2,2,2-trifluoro-ethoxy)-pyridine-2-carboxylic acid (2-hydroxy-2-methyl-propyl)-amide] | > 10 µM | 0.481 µM | – | – |
| Cc1nc(C(C)(NC(=O)c2cc(OCC(F)(F)F)c(Cl)cn2)C2CC2)no1 (centres unmarked) [Example 62, 5-Chloro-4-(2,2,2-trifluoro-ethoxy)-pyridine-2-carboxylic acid [1-cyclopropyl-1-(5-methyl-[1,2,4]oxadiazol-3-yl)-ethyl]-amide] | > 10 µM | 0.0089 µM | – | – |
| C[C@@H](Oc1cc(C(=O)NC2(CC(N)=O)COC2)ncc1C1CC1)C(F)(F)F [Example 63, 5-Cyclopropyl-4-((R)-2,2,2-trifluoro-1-methyl-ethoxy)-pyridine-2-carboxylic acid (3-carbamoylmethyl-oxetan-3-yl)-amide] | > 10 µM | 0.283 µM | – | – |
| C[C@H](Oc1cc(C(=O)NC2(CC(N)=O)COC2)ncc1C1CC1)C(F)(F)F [Example 64, 5-Cyclopropyl-4-((S)-2,2,2-trifluoro-1-methyl-ethoxy)-pyridine-2-carboxylic acid (3-carbamoylmethyl-oxetan-3-yl)-amide] | > 10 µM | 0.515 µM | – | – |
| CC(C)(C)NC(=O)c1cc(OCC(F)(F)F)c(C2CC2)cn1 [Example 70, 5-Cyclopropyl-4-(2,2,2-trifluoro-ethoxy)-pyridine-2-carboxylic acid tert-butylamide] | > 10 µM | 0.0104 µM | – | – |
| O=C(c1cc(OCC(F)(F)F)c(C2CC2)cn1)N1CCCC12COC2 [Example 71, [5-Cyclopropyl-4-(2,2,2-trifluoro-ethoxy)-pyridin-2-yl]-(2-oxa-5-aza-spiro[3.4]oct-5-yl)-methanone] | > 10 µM | 0.586 µM | – | – |
| O=C(c1cc(OCC(F)(F)F)c(C2CC2)cn1)N1CC(F)(F)C1 [Example 76, [5-Cyclopropyl-4-(2,2,2-trifluoro-ethoxy)-pyridin-2-yl]-(3,3-difluoro-azetidin-1-yl)-methanone] | > 10 µM | 0.167 µM | – | – |
| CCC(C)(NC(=O)c1cc(OCC(F)(F)F)c(C2CC2)cn1)C(N)=O (centres unmarked) [Example 77, 5-Cyclopropyl-4-(2,2,2-trifluoro-ethoxy)-pyridine-2-carboxylic acid (1-carbamoyl-1-methyl-propyl)-amide] | > 10 µM | 0.137 µM | – | – |
| Cc1nc(C(C)(NC(=O)c2cc(OCC(F)(F)F)c(N3CC(F)(F)C3)cn2)C2CC2)no1 (centres unmarked) [Example 78, 5-(3,3-Difluoro-azetidin-1-yl)-4-(2,2,2-trifluoro-ethoxy)-pyridine-2-carboxylic acid [1-cyclopropyl-1-(5-methyl-[1,2,4]oxadiazol-3-yl)-ethyl]-amide] | > 10 µM | 0.0061 µM | – | – |
| Cc1nc(C(C)(NC(=O)c2cc(OCC(F)(F)F)c(N3CCC(F)(F)C3)cn2)C2CC2)no1 (centres unmarked) [Example 79, 5-(3,3-Difluoro-pyrrolidin-1-yl)-4-(2,2,2-trifluoro-ethoxy)-pyridine-2-carboxylic acid [1-cyclopropyl-1-(5-methyl-[1,2,4]oxadiazol-3-yl)-ethyl]-amide] | 0.19 µM | 0.0065 µM | – | – |
| Cc1nc(C(C)(CS(C)(=O)=O)NC(=O)c2cc(OCC(F)(F)F)c(Cl)cn2)no1 (centres unmarked) [Example 80, 5-Chloro-4-(2,2,2-trifluoro-ethoxy)-pyridine-2-carboxylic acid [2-methanesulfonyl-1-methyl-1-(5-methyl-[1,2,4]oxadiazol-3-yl)-ethyl]-amide] | > 10 µM | 0.969 µM | – | – |
| Cc1nc(C(C)(CS(C)(=O)=O)NC(=O)c2cc(O[C@@H](C)C(F)(F)F)c(C3CC3)cn2)no1 (stereo partly drawn) [Example 81, 5-Cyclopropyl-4-((S)-2,2,2-trifluoro-1-methyl-ethoxy)-pyridine-2-carboxylic acid [2-methanesulfonyl-1-methyl-1-(5-methyl-[1,2,4]oxadiazol-3-yl)-ethyl]-amide] | – | – | 0.19 µM | 0.0053 µM |
| CC(C)CC(C)(NC(=O)c1cc(OCC(F)(F)F)c(C2CC2)cn1)C(N)=O (centres unmarked) [Example 82, 5-Cyclopropyl-4-(2,2,2-trifluoro-ethoxy)-pyridine-2-carboxylic acid (1-carbamoyl-1,3-dimethyl-butyl)-amide] | > 10 µM | 0.0805 µM | – | – |
| Cc1nc(C(C)(CC(C)(C)C)NC(=O)c2cc(OCC(F)(F)F)c(Cl)cn2)no1 (centres unmarked) [Example 83, 5-Chloro-4-(2,2,2-trifluoro-ethoxy)-pyridine-2-carboxylic acid [1,3,3-trimethyl-1-(5-methyl-[1,2,4]oxadiazol-3-yl)-butyl]-amide] | > 10 µM | 0.025 µM | – | – |
| Cc1nc(C(C)(CS(C)(=O)=O)NC(=O)c2cc(OCC(F)(F)F)c(C3CC3)cn2)no1 (centres unmarked) [Example 84, 5-Cyclopropyl-4-(2,2,2-trifluoro-ethoxy)-pyridine-2-carboxylic acid [2-methanesulfonyl-1-methyl-1-(5-methyl-[1,2,4]oxadiazol-3-yl)-ethyl]-amide] | > 10 µM | 0.0488 µM | – | – |
| CN(C)C(=O)CC1(NC(=O)c2cc(OCC(F)(F)F)c(Cl)cn2)COC1 [Example 85, 5-Chloro-4-(2,2,2-trifluoro-ethoxy)-pyridine-2-carboxylic acid (3-dimethylcarbamoylmethyl-oxetan-3-yl)-amide] | > 10 µM | 0.362 µM | – | – |
| CN(C(=O)c1cc(-c2cccc(Cl)c2)ccn1)C(C)(C)C [Example 86, 4-(3-Chloro-phenyl)-pyridine-2-carboxylic acid tert-butyl-methyl-amide] | > 10 µM | 0.145 µM | – | – |
| Cc1nc(C(C)(CC2CC2)NC(=O)c2cc(OCC(F)(F)F)c(Cl)cn2)no1 (centres unmarked) [Example 89, 5-Chloro-4-(2,2,2-trifluoro-ethoxy)-pyridine-2-carboxylic acid [2-cyclopropyl-1-methyl-1-(5-methyl-[1,2,4]oxadiazol-3-yl)-ethyl]-amide] | > 10 µM | 0.0483 µM | – | – |
| Cc1nc(C(C)(CC2CC2)NC(=O)c2cc(OCC(F)(F)F)c(N3CC(F)(F)C3)cn2)no1 (centres unmarked) [Example 90, 5-(3,3-Difluoro-azetidin-1-yl)-4-(2,2,2-trifluoro-ethoxy)-pyridine-2-carboxylic acid [2-cyclopropyl-1-methyl-1-(5-methyl-[1,2,4]oxadiazol-3-yl)-ethyl]-amide] | > 10 µM | 0.0177 µM | – | – |
| Cc1nc(C(C)(CS(C)(=O)=O)NC(=O)c2cc(OCC(F)(F)F)c(N3CC(F)(F)C3)cn2)no1 (centres unmarked) [Example 95, 5-(3,3-Difluoro-azetidin-1-yl)-4-(2,2,2-trifluoro-ethoxy)-pyridine-2-carboxylic acid [2-methanesulfonyl-1-methyl-1-(5-methyl-[1,2,4]oxadiazol-3-yl)-ethyl]-amide] | > 10 µM | 0.0554 µM | – | – |
| Cc1nc(C(C)(NC(=O)c2cc(O[C@@H](C)C(F)(F)F)c(N3CC(F)(F)C3)cn2)C2CC2)no1 (stereo partly drawn) [Example 96, 5-(3,3-Difluoro-azetidin-1-yl)-4-((S)-2,2,2-trifluoro-1-methyl-ethoxy)-pyridine-2-carboxylic acid [1-cyclopropyl-1-(5-methyl-[1,2,4]oxadiazol-3-yl)-ethyl]-amide] | 0.11 µM | 0.0014 µM | – | – |
